Measurements published in PubChem BioAssay (NCI).
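96-well plates; 48 h exposure; 5 concentrations. Endpoints by linear interpolation between flanking doses. Not reached: highest tested concentration assigned. TGI: concentration producing complete growth inhibition.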

Tests used:
Assay in all cases: NCI tumour cell line growth inhibition, 48 h
[1] = tested on: 786-0 renal
[2] = tested on: A498 renal
[3] = tested on: A549 NSCLC
[4] = tested on: ACHN renal
[5] = tested on: CAKI-1 renal
[6] = tested on: CCRF-CEM leukemia
[7] = tested on: COLO 205 colon
[8] = tested on: DLD-1 colon
[9] = tested on: DMS 114 small cell lung
[10] = tested on: DMS 273 small cell lung
[11] = tested on: EKVX NSCLC
[12] = tested on: HCC-2998 colon
[13] = tested on: HCT-116 colon
[14] = tested on: HCT-15 colon
[15] = tested on: HL-60(TB) leukemia
[16] = tested on: HOP-18 NSCLC
[17] = tested on: HOP-62 NSCLC
[18] = tested on: HOP-92 NSCLC
[19] = tested on: HT29 colon
[20] = tested on: IGROV1 ovarian
[21] = tested on: K-562 leukemia
[22] = tested on: KM12 colon
[23] = tested on: KM20L2 colon
[24] = tested on: LOX IMVI melanoma
[25] = tested on: LXFL 529 NSCLC
[26] = tested on: M14 melanoma
[27] = tested on: M19-MEL melanoma
[28] = tested on: MALME-3M melanoma
[29] = tested on: MOLT-4 leukemia
[30] = tested on: NCI-H226 lung
[31] = tested on: NCI-H23 lung
[32] = tested on: NCI-H460 lung
[33] = tested on: NCI-H522 lung
[34] = tested on: OVCAR-3 ovarian
[35] = tested on: OVCAR-4 ovarian
[36] = tested on: OVCAR-5 ovarian
[37] = tested on: OVCAR-8 ovarian
[38] = tested on: RPMI-8226 leukemia
[39] = tested on: RXF 393 renal
[40] = tested on: SF-268 CNS
[41] = tested on: SF-295 CNS
[42] = tested on: SF-539 CNS
[43] = tested on: SK-MEL-2 melanoma
[44] = tested on: SK-MEL-28 melanoma
[45] = tested on: SK-MEL-5 melanoma
[46] = tested on: SK-OV-3 ovarian
[47] = tested on: SN12C renal
[48] = tested on: SNB-19 CNS
[49] = tested on: SNB-75 CNS
[50] = tested on: SNB-78 CNS
[51] = tested on: SR leukemia
[52] = tested on: SW-620 colon
[53] = tested on: TK-10 renal
[54] = tested on: U251 CNS
[55] = tested on: UACC-257 melanoma
[56] = tested on: UACC-62 melanoma
[57] = tested on: UO-31 renal
[58] = tested on: XF 498 CNS

Measured: TGI

C[C@]12CCC[C@H](Cl)C1(O)C[C@H](C(=O)O)CC2 (stereo not given in full)
> 100 µM: all assays above

CCOC(=O)C(=O)Nc1c(F)cc(F)cc1Br
not listed: [10] | [16] | [33]
> 100 µM: all other assays above

C=C/C=C(\NC(=O)C(Cl)(Cl)Cl)[Si](C)(C)C
not listed: [5]
> 100 µM: all other assays above
